Data set [1] in a line: Toxicity in BALB/c nude mouse xenografted with human MCF7 cells assessed as effect on body weight at 5 mg/kg, ip administered once daily for 15 days in presence of light irradiation. It counts as organism-based. To be noted: in vivo, 360 h, time 15 day.
Data set [2] deals with MCF7. Description: Induction of ROS generation in human MCF7 cells assessed as increase in ROS level at 5 uM for 10 mins by DCFH-DA staining-based flow cytometry. It counts as functional.
Data set [3] concerns MCF7. Description: Antiproliferative activity against human MCF7 cells assessed as cell viability in dark incubated for 48 hrs by MTT assay. To be noted: MCF7, 48 h. It counts as functional, cell-based. (In general: Formazan colour is commonly taken as a measure of viable cells.)
In data set [4] the test system is MCF7. Description: Antiproliferative activity against human MCF7 cells assessed as cell viability in light irradiation and measured after 48 hrs by MTT assay. The format is functional, cell-based. As to conditions: MCF7, light or radiation study.
Data set [5] relates to MCF7. Description: Induction of cell membrane permeability in human MCF7 cells at 5 uM in presence of light irradiation by confocal microscopy analysis. The format is functional.
The test system of data set [6] is B16-F10. Description: Antiproliferative activity against mouse B16-F10 cells assessed as cell viability in dark incubated for 48 hrs by MTT assay. It counts as functional, cell-based. To be noted: B16-F10, 48 h.
Data set [7] relates to B16-F10. Description: Antiproliferative activity against mouse B16-F10 cells assessed as cell viability in light irradiation and measured for 48 hrs by MTT assay. It counts as functional, cell-based. To be noted: B16-F10, light or radiation study.
Data set [8] is described as follows: Effect on HClO level in human MCF7 cells by fluorescence method. The format is functional.
A short description of data set [9]: Toxicity in BALB/c nude mouse xenografted with human MCF cells assessed as MCLOP induced morphological changes in liver at 5 mg/kg, ip administered once daily for 15 days by H and E staining based analysis. It counts as organism-based. As to conditions: in vivo, 360 h, time 15 day. A general note: A xenograft is tissue or cells of one species grown in another, often human tumour cells in immunodeficient mice.

Data set [10] deals with MCF7. Description: Potentiation of MCLOP induced antitumor activity against human MCF7 cells xenografted in Balb/c nude mouse assessed as tumor growth inhibition at 5 mg/kg, ip administered once daily for 15 days in presence of light irradiation. The format is functional, organism-based. As to conditions: time 15.0 day.
The test system of data set [11] is MCF7. The experiment in a line: Potentiation of MCLOP induced autophagy in human MCF7 cells assessed as increase in […] protein ratio level at 5 uM and measured after 24 hrs by western blot analysis. It counts as functional, cell-based. A general note: Immunoblotting shows a protein as a band on a membrane.
The subject of data set [12] is MCF7. Description: Potentiation of MCLOP induced ROS generation in human MCF7 cells assessed as increase in ROS level at 5 uM for 10 mins by DCFH-DA staining-based flow cytometry. It counts as functional.
Data set [13] relates to MCF7. Description: Potentiation of MCLOP induced cell membrane permeability in human MCF7 cells at 5 uM in dark by confocal microscopy analysis. It counts as functional.
The nature of data set [14]: Octanol-water partition coefficient, logP of the compound. It counts as physicochemical.
Data set [15] has as its system MCF7. The experiment in a line: Potentiation of MCLOP induced autophagy in human MCF7 cells assessed as induction of autophagosomes formation by measuring increase LC3 puncta at 5 uM measured after 24 hrs by confocal microscopic analysis. The format is functional, cell-based.
Data set [16] relates to MCF7. Description: Potentiation of MCLOP induced increase in HClO level in human MCF7 cells by fluorescence method. It counts as functional.
Data set [17] concerns MCF7. The experiment in a line: Potentiation of MCLOP induced cell membrane permeability in human MCF7 cells at 5 uM in presence of light irradiation by confocal microscopy analysis. The format is functional.
A short description of data set [18]: Toxicity in BALB/c nude mouse xenografted with human MCF cells assessed as MCLOP induced morphological changes in kidney at 5 mg/kg, ip administered once daily for 15 days by H and E staining based analysis. It counts as organism-based. As to conditions: in vivo, 360 h, time 15 day.
A short description of data set [19]: Toxicity in BALB/c nude mouse xenografted with human MCF cells assessed as MCLOP induced morphological changes in lung at 5 mg/kg, ip administered once daily for 15 days by H and E staining based analysis. It counts as organism-based. To be noted: in vivo, 360 h, time 15 day.
The subject of data set [20] is MCF7. The experiment in a line: Potentiation of MCLOP induced autophagy in human MCF7 cells assessed as decrease in p62 protein level at 5 uM measured after 24 hrs by western blot analysis. The format is functional, cell-based.
A short description of data set [21]: Toxicity in BALB/c nude mouse xenografted with human MCF cells assessed as MCLOP induced morphological changes in heart at 5 mg/kg, ip administered once daily for 15 days by H and E staining based analysis. It counts as organism-based. To be noted: in vivo, 360 h, time 15 day.
Data set [22] can be described thus: Toxicity in BALB/c nude mouse xenografted with human MCF cells assessed as MCLOP induced morphological changes in spleen at 5 mg/kg, ip administered once daily for 15 days by H and E staining based analysis. It counts as organism-based. To be noted: in vivo, 360 h, time 15 day.
In data set [23] the test system is MCF7. Description: Cytotoxicity against human MCF7 cells assessed as cell viability at 10 uM incubated for 48 hrs by MTT assay. It counts as toxicity, cell-based. As to conditions: mcf7, 48 h.
Data set [24] deals with MCF7. The experiment in a line: Potentiation of MCLOP induced antiproliferative activity against human MCF7 cells assessed as cell survial rate in presence of light irradiation at 10 uM and measured after 48 hrs by MTT assay. It counts as functional.

The values below come from ChEMBL document CHEMBL5154663, “Biotinylated curcumin as a novel chemosensitizer enhances naphthalimide-induced autophagic cell death in breast cancer cells” (Eur J Med Chem, 2022).

In general, IC50 refers to the midpoint of a concentration-inhibition curve. As a reminder, the logP is the decadic logarithm of the partition coefficient of the neutral form, usually between octanol and water. Read a high logP as a more lipophilic compound.

Calls of active or inactive are those of the source. No cut-off for these calls is given here.

On to `CN(C)c1ccc2c(c1)Sc1cc(N(C)C)ccc1N2C(=O)NCCN1C(=O)c2cccc3cc([N+](=O)[O-])cc(c23)C1=O`, for which, in [1], the Activity result was “Non-Toxic”. Besides, the “fold change (FC)” value with MCF7 [2] was 3.1; in the data set with MCF7 [5] it was 4.1. Also, the IC50 is over 40 µM in the data set on MCF7 [3], 12.7 µM in the data set on MCF7 [4], over 40 µM in the data set with B16-F10 [6] and 30.8 µM in the data set with B16-F10 [7].
In the case of `COc1cc(/C=C/C(=O)CC(=O)/C=C/c2ccc(OC(=O)CCCC[C@@H]3SC[C@@H]4NC(=O)N[C@@H]43)c(OC)c2)ccc1O`, the Activity entry in [1] was “Non-Toxic”; with MCF7 [2] (DDE = dose-dependent effect), “Dde”; in data set [9], “Non-Toxic”; in data set [18], “Non-Toxic”; in data set [19], “Non-Toxic”; in [21], “Non-Toxic”. The Activity result in data set [22] was “Non-Toxic”. In addition, the “fold change (FC)” value came to 2.3 in data set [8]; 5.6 with MCF7 [12]; 3 with MCF7 [13]; 2.2 with MCF7 [16]; 5.3 in the data set on MCF7 [17]. Also, the outcome in the data set with MCF7 [10], in the data set with MCF7 [11], in the data set with MCF7 [15] and in the data set with MCF7 [20] was Active. Moreover, in data set [14], the logP was found to be 0.91.
As to `COc1cc(/C=C/C(=O)CC(=O)/C=C/c2ccc(O)c(OC)c2)ccc1O` [CURCUMIN], the Activity result in the data set with MCF7 [23] is recorded as “Non-Toxic”; with MCF7 [24], 20%. Besides, in data set [14], the log partition coefficient (logP) amounted to 2.04.
For `CN(C)c1ccc2nc3ccc(N(C)C)cc3[s+]c2c1` [METHYLENE BLUE ANHYDROUS], the concentration for half-maximal inhibition (IC50) in the data set on MCF7 [3] was 14.6 µM; in the data set with MCF7 [4] it was 10.6 µM; in the data set on B16-F10 [6], 7.02 µM; in the data set with B16-F10 [7] it was 5.48 µM.
